From patent US5196327A, “Process for producing antifungal fermentation products and compositions thereof” (Merck & Co., Inc., priority 1991, dated 1993)
≈ marks a conversion by molar mass, not a printed value. Where two headings read alike, the source gives them in different places.

Columns and labels:
[1] = test system: Candida albicans (five strains); assay: Antifungal disc diffusion assay; type: cell-based; conditions: five strains of Candida albicans
Source text: (§1) The antifungal activity of the compounds may be detected in an antifungal assay employing disc diffusion methods against a panel of representative yeasts, filamentous fungi (molds) and bacteria.
(§2) The yeasts employed in the assay are Saccharomyces cerevisiae, Candida albicans, […], Candida tropicalis, Candida rugosa, Brettanomyces bruxellensis, Torulospora hansenii, Candida quilliermondi, Candida pseudotropicalis, Torulopsis glabrata, Cryptococcus albidus, and Cryptococcus laurentii.
(§3) For carrying out the assay, seeded assay plates are prepared in the following manner according to the type of assay strain.
(§4) Inocula for yeasts and bacterial strains are prepared from overnight broth cultures then diluted into potato dextrose agar to a final concentration of either 40 percent or 70 percent transmission at 660 nm.
For three strains of Candida albicans and one strain of Saccharomyces cerevisiae, sterile saline is employed in place of potato dextrose broth. Assay plates are prepared by diluting the inoculum into appropriate molten agar medium, cooled to 45° C. to obtain a final concentration of 4 percent.
The seeded agar media thus prepared are dispensed into petri dishes for assays (11 milliliters per dish). […]
(§5) Following incubation, the inhibition zones are measured and recorded. […]

[2] = test system: Ustilago maydis; assay: Antifungal disc diffusion assay; type: cell-based
Source text: as §1
(§6) The filamentous fungi used in the assay are Cochliobolus miyabeanus, Penicillium sp. (three strains), Aspergillus niger, Trichoderma sp., Phoma sp., Trichoderma lignorum, Fusarium oxysporum, Ustilago maydis, Ceratocystis ulmi, Alternaria solani, Verticillium serrae, Botrytis allii, Scopulariopsis communis, Cephalosporium sp., Cercospora beticola, […], Rhizomucor miehei, Aspergillus flavus and Aspergillus fumigatus.
as §3
(§7) Inocula for filamentous fungi are prepared by scraping the surface of stock plates maintained on potato dextrose agar with a moistened sterile dacron swab. The spores and mycelia are then suspended in 10 milliliters of sterile potato dextrose broth and adjusted to 70 percent transmission at 660 nm.
(§8) The seeded agar media thus prepared are dispensed into petri dishes for assays (11 milliliters per dish).
The samples to be tested for production of antifungal agent are applied to 6.2 mm. filter paper discs (25 microliter/disc) and air dried at 24° C. […]
as §5

[3] = test system: panel of representative yeasts, filamentous fungi (molds) and bacteria; assay: Antifungal disc diffusion assay, panel; type: cell-based; conditions: panel of organisms
Source text: as §1, §6, §2
The bacteria employed in the assay are Streptomyces sp., Acholeplasma laidlawii and Bacillus subtilis.
as §3, §7, §4
When the organism is Acholephasma laidlawii, it is suspended in brain heart infusion broth supplemented with 2.5 percent yeast extract and 20 percent heat inactivated horse serum, and the broth adjusted to a final concentration of 60 percent transmission at 660 nm. […]
as §5

[4] = test system: Torulospora hansenii; assay: Antifungal disc diffusion assay; type: cell-based
Source text: as §1, §2, §3, §4, §8
(§9) The samples to be tested for production of antifungal agent are applied to 6.2 mm. filter paper discs (25 microliter/disc) and air dried at 24° C. When the sample to be tested is crude broth, it may be centrifuged prior to application. The discs bearing the material to be tested are then applied employing sterile conditions to the seeded assay plates and the samples rewet with 25 percent sterile aqueous dimethylsulfoxide (25 μl/disc). The assay plates are then incubated at either 28° C. or 37° C. for 24 hours. In one of the assays for Bacillus subtilis, the sample is applied to a disc previously impregnated with 4M potassium chloride at 25 μl/disc and then air dried.
(§10) Following incubation, the inhibition zones are measured and recorded. The measurements are made from the extreme edge where growth differs from the background zone. The growths are noted as to appearance as fuzzy edge and clear center, hazy throughout, slightly hazy, very hazy or ringed.

[5] = test system: Cryptococcus albidus; assay: Antifungal disc diffusion assay; type: cell-based
Source text: as §1, §2, §3, §4, §8, §9, §10

[6] = test system: Candida tropicalis; assay: Antifungal disc diffusion assay; type: cell-based
Source text: as §1, §2, §3, §4, §8, §9, §10

[7] = test system: Aspergillus niger; assay: Antifungal disc diffusion assay; type: cell-based
Source text: as §1, §6, §2, §3
Inocula for filamentous fungi are prepared by scraping the surface of stock plates maintained on potato dextrose agar with a moistened sterile dacron swab. […]
as §5

[8] = test system: Ca. tropicalis MY1011; assay: Agar dilution assay, MIC; type: cell-based, Candida tropicalis; conditions: strain MY1011, yeast nitrogen base dextrose agar; for MIC: read-out: Minimum Inhibitory Concentration
Description: (§11) In separate operations, in vitro antifungal activity determinations were carried out with Compound IB and with Compound IC against a panel of filamentous and yeast-like fungi employing yeast nitrogen base dextrose agar medium. In carrying out the assay, the compound to be tested was solubilized in 10 percent dimethyl sulfoxide (DMSO) supplemented with one drop of Tween 20. Two-fold dilutions were made with sterile distilled water/10% DMSO to obtain final concentrations in the agar dilution assay plates ranging from 64 to 0.06 μg/ml in the operation with Compound IB and from 128 to 0.06 μg/ml in the operation with Compound IC.
(§12) Nystatin (commercially available antifungal agent) was used as a positive antifungal control.

[9] = test system: Ca. tropicalis MY1012; assay: Agar dilution assay, MIC; type: cell-based, Candida tropicalis; conditions: strain MY1012, yeast nitrogen base dextrose agar; for MIC: read-out: Minimum Inhibitory Concentration
Description: as §11, §12

[10] = test system: Sac. cerevisiae MY1027; assay: Agar dilution assay, MIC; type: cell-based, Saccharomyces cerevisiae; conditions: strain MY1027, yeast nitrogen base dextrose agar; for MIC: Saccharomyces cerevisiae, read-out: Minimum Inhibitory Concentration
Description: as §11, §12

[11] = test system: Cr. neoformans MY1146; assay: Agar dilution assay, MIC; type: cell-based, Cryptococcus neoformans; conditions: strain MY1146, yeast nitrogen base dextrose agar; for MIC: read-out: Minimum Inhibitory Concentration
Description: as §11, §12

[12] = test system: Ca. krusei MY1020; assay: Agar dilution assay, MIC; type: cell-based; conditions: strain MY1020, yeast nitrogen base dextrose agar; for MIC: read-out: Minimum Inhibitory Concentration
Description: as §11, §12

[13] = test system: Cryptococcus neoformans MY1051; assay: Agar dilution assay, MIC; type: cell-based; conditions: strain MY1051, yeast nitrogen base dextrose agar; for MIC: read-out: Minimum Inhibitory Concentration
Description: as §11, §12

[14] = test system: Penicillium italicum MF2819; assay: Agar dilution assay, MIC; type: cell-based; conditions: strain MF2819, yeast nitrogen base dextrose agar; for MIC: read-out: Minimum Inhibitory Concentration
Description: as §11, §12

[15] = test system: Torulopsis glabrata MY1059; assay: Agar dilution assay, MIC; type: cell-based; conditions: strain MY1059, yeast nitrogen base dextrose agar; for MIC: read-out: Minimum Inhibitory Concentration
Description: as §11, §12

[16] = test system: Ca. parapsilosis MY1010; assay: Agar dilution assay, MIC; type: cell-based; conditions: strain MY1010, yeast nitrogen base dextrose agar; for MIC: read-out: Minimum Inhibitory Concentration
Description: as §11, §12

[17] = test system: Candida albicans MY1058; assay: Agar dilution assay, MIC; type: cell-based; conditions: strain MY1058, yeast nitrogen base dextrose agar; for MIC: read-out: Minimum Inhibitory Concentration
Description: as §11, §12

[18] = test system: Ca. stellatoidea MY1017; assay: Agar dilution assay, MIC; type: cell-based; conditions: strain MY1017, yeast nitrogen base dextrose agar; for MIC: read-out: Minimum Inhibitory Concentration
Description: as §11, §12

[19] = test system: Aspergillus fumigatus MF4839; assay: Agar dilution assay, MIC; type: cell-based; conditions: strain MF4839, yeast nitrogen base dextrose agar; for MIC: read-out: Minimum Inhibitory Concentration
Description: as §11, §12

[20] = test system: Ca. parapsilosis MY1009; assay: Agar dilution assay, MIC; type: cell-based; conditions: strain MY1009, yeast nitrogen base dextrose agar; for MIC: read-out: Minimum Inhibitory Concentration
Description: as §11, §12

[21] = test system: Ca. guilliermondi MY1019; assay: Agar dilution assay, MIC; type: cell-based; conditions: strain MY1019, yeast nitrogen base dextrose agar; for MIC: read-out: Minimum Inhibitory Concentration
Description: as §11, §12

[22] = test system: Ca. pseudotropicalis MY1040; assay: Agar dilution assay, MIC; type: cell-based, Candida pseudotropicalis; conditions: strain MY1040, yeast nitrogen base dextrose agar; for MIC: read-out: Minimum Inhibitory Concentration
Description: as §11, §12

[23] = test system: Ca. albicans MY1013; assay: Agar dilution assay, MIC; type: cell-based, Candida albicans; conditions: strain MY1013, yeast nitrogen base dextrose agar; for MIC: read-out: Minimum Inhibitory Concentration
Description: as §11, §12

[24] = test system: Ca. albicans MY1055; assay: Agar dilution assay, MIC; type: cell-based, Candida albicans; conditions: strain MY1055, yeast nitrogen base dextrose agar; for MIC: read-out: Minimum Inhibitory Concentration
Description: as §11, §12

[25] = test system: Ca. albicans MY0992; assay: Agar dilution assay, MIC; type: cell-based, Candida albicans; conditions: strain MY0992, yeast nitrogen base dextrose agar; for MIC: read-out: Minimum Inhibitory Concentration
Description: as §11, §12

[26] = test system: Ca. albicans MY1029; assay: Agar dilution assay, MIC; type: cell-based, Candida albicans; conditions: strain MY1029, yeast nitrogen base dextrose agar; for MIC: read-out: Minimum Inhibitory Concentration
Description: as §11, §12

[27] = test system: A. flavus MF0383; assay: Agar dilution assay, MIC; type: cell-based, Aspergillus flavus; conditions: strain MF0383, yeast nitrogen base dextrose agar; for MIC: read-out: Minimum Inhibitory Concentration
Description: as §11, §12

[28] = test system: Ca. rugosa MY1022; assay: Agar dilution assay, MIC; type: cell-based, Candida rugosa; conditions: strain MY1022, yeast nitrogen base dextrose agar; for MIC: read-out: Minimum Inhibitory Concentration
Description: as §11, §12

CCCCCCC(O)CCCCCCC=CC(O)C(O)C(O)C(NC(=N)N)C(=O)O (stereo not shown) [Compound IA, 2-guanidino-3,4,5,14-tetrahydroxy-6-eicosenoic acid]
antifungal activity [1]: good activity | antifungal activity [2]: good activity | antifungal activity ([2]; listed as I-A): especially good activity | antifungal activity [3]: good activity against almost all of the organisms | antifungal activity ([3]; listed as I-A): activity against a number of fungal organisms | antifungal activity [4]: good activity | antifungal activity [5]: good activity | antifungal activity [6]: good activity | antifungal activity [7]: good activity

CCCCCCC(O)CCCCCCC=CC(O)C(O)C(O)C(N)C(=O)O (stereo not shown) [Compound IB, 2-amino-3,4,5,14-tetrahydroxy-6-eicosengoic acid]
MIC [8]: 16 µg/mL (≈ 41.1 µM) | MIC [9]: 2 µg/mL (≈ 5.13 µM) | MIC [10]: 16 µg/mL (≈ 41.1 µM) | MIC [11]: 2 µg/mL (≈ 5.13 µM) | MIC [12]: > 64 µg/mL | MIC [13]: 2 µg/mL (≈ 5.13 µM) | MIC [14]: > 64 µg/mL | MIC [15]: 16 µg/mL (≈ 41.1 µM) | MIC [16]: 2 µg/mL (≈ 5.13 µM) | MIC [17]: 16 µg/mL (≈ 41.1 µM) | MIC [18]: 16 µg/mL (≈ 41.1 µM) | MIC [19]: 64 µg/mL (≈ 164 µM) | MIC [20]: 32 µg/mL (≈ 82.1 µM) | MIC [21]: > 64 µg/mL | antifungal activity [3]: consistently active against most of the 41 of the filamentous fungi and yeasts | MIC [22]: 0.5 µg/mL (≈ 1.28 µM) | MIC [23]: 32 µg/mL (≈ 82.1 µM) | MIC [24]: 32 µg/mL (≈ 82.1 µM) | MIC [25]: 32 µg/mL (≈ 82.1 µM) | MIC [26]: 64 µg/mL (≈ 164 µM) | MIC [27]: 64 µg/mL (≈ 164 µM) | MIC [28]: > 64 µg/mL

CCCCCCC(O)CCCCCCC=CC(OC(C)=O)C(O)C(O)C(N)C(=O)O (stereo not shown) [Compound IC, 5-acetyloxy-2-amino-3,4,14-trihydroxy-6-eicosenoic acid]
MIC [8]: 32 µg/mL (≈ 74.1 µM) | MIC [9]: 2 µg/mL (≈ 4.63 µM) | MIC [10]: 32 µg/mL (≈ 74.1 µM) | MIC [11]: 2 µg/mL (≈ 4.63 µM) | MIC [12]: > 128 µg/mL | MIC [13]: 2 µg/mL (≈ 4.63 µM) | MIC [14]: 32 µg/mL (≈ 74.1 µM) | MIC [15]: 16 µg/mL (≈ 37.1 µM) | MIC [16]: 8 µg/mL (≈ 18.5 µM) | MIC [17]: 32 µg/mL (≈ 74.1 µM) | MIC [18]: 32 µg/mL (≈ 74.1 µM) | MIC [19]: 64 µg/mL (≈ 148 µM) | MIC [20]: > 128 µg/mL | MIC [21]: > 128 µg/mL | MIC [22]: 2 µg/mL (≈ 4.63 µM) | MIC [23]: 128 µg/mL (≈ 297 µM) | MIC [24]: 128 µg/mL (≈ 297 µM) | MIC [25]: 128 µg/mL (≈ 297 µM) | MIC [26]: > 128 µg/mL | MIC [27]: 64 µg/mL (≈ 148 µM) | MIC [28]: > 128 µg/mL

C[C@@H]1[C@H](O)[C@@H](C)/C=C/C=C/CC/C=C/C=C/C=C/C=C/C(O[C@H]2O[C@H](C)[C@@H](O)[C@H](N)[C@@H]2O)CC2O[C@](O)(CC(O)C(O)CCC(O)CC(O)CC(O)CC(=O)O[C@H]1C)CC(O)C2C(=O)O (stereo partly shown) [Nystatin, reference compound]
Minimum Inhibitory Concentration [8]: 2 µg/mL | Minimum Inhibitory Concentration [9]: > 128 µg/mL | Minimum Inhibitory Concentration [10]: 1 µg/mL | Minimum Inhibitory Concentration [11]: 2 µg/mL | Minimum Inhibitory Concentration [12]: 2 µg/mL | Minimum Inhibitory Concentration [13]: 2 µg/mL | Minimum Inhibitory Concentration [14]: 2 µg/mL | Minimum Inhibitory Concentration [15]: 1 µg/mL | Minimum Inhibitory Concentration [16]: 2 µg/mL | Minimum Inhibitory Concentration [17]: 2 µg/mL | Minimum Inhibitory Concentration [18]: 2 µg/mL | Minimum Inhibitory Concentration [19]: 2 µg/mL | Minimum Inhibitory Concentration [20]: 4 µg/mL | Minimum Inhibitory Concentration [21]: 2 µg/mL | Minimum Inhibitory Concentration [22]: 1 µg/mL | Minimum Inhibitory Concentration [23]: 2 µg/mL | Minimum Inhibitory Concentration [24]: 2 µg/mL | Minimum Inhibitory Concentration [25]: 2 µg/mL | Minimum Inhibitory Concentration [26]: 2 µg/mL | Minimum Inhibitory Concentration [27]: 2 µg/mL | Minimum Inhibitory Concentration [28]: 4 µg/mL
